In brackets after ≈: the same amount, converted by molar mass. Where two headings read alike, the source gives them in different places.
Key:
[1] = tested on: all tested bacterial strains, including non-staphylococci strains; assay: Broth microdilution MIC, summary over all strains tested; conditions: read-out: MIC of DTT
[2] = tested on: Bacillus subtilis xpt-lacZ; assay: Broth microdilution MIC; assay type: cell-based; conditions: B. subtilis xpt-lacZ, read-out: Broth Microdilution MIC
[3] = tested on: Staphylococcus aureus CMRSA-10; assay: Broth microdilution MIC; assay type: cell-based; conditions: CMRSA10, S. aureus CMRSA-10, CAMHB supplemented with 2% NaCl, read-out: Broth Microdilution MIC
Text: (§1) Reference strains for this study (S. aureus ATCC 29213, ATCC 29740 [bovine mastitis strain Newbould], S. epidermidis ATCC 12228, E. coli ATCC 35695, E. faecalis ATCC 29212) were obtained from the American Type Culture Collection (ATCC, Rockville, MD). S. aureus strains CMRSA-10 and CMRSA-2 were obtained from the Laboratoire de santé publique du Québec (LSPQ, Sainte-Anne-de-Bellevue, QC, Canada) and are Canadian CA-MRSA USA-300 and HA-MRSA USA-100 clones, respectively. The strain E. coli imp4213 (lptD), used as a control in MIC assays, is a derivative of E. coli ATCC 35695 (E. coli MC4100) with an increased membrane permeability. […] Other MRSA strains used in this study are clinical isolates of human origin obtained from the microbiology laboratory of the Centre Hospitalier Universitaire de Sherbrooke (CHUS, Sherbrooke, QC, Canada). Bovine mastitis strains (S. aureus, S. chromogenes, S. haemolyticus, S. hominis, S. simulans) were obtained from the Canadian Bovine Mastitis and Milk Quality Research Network (CBRQMN, St-Hyacinthe, QC, Canada). Among these strains, S. aureus 2117 is a high producer of biofilm and was used in the biofilm-eradication assay. S. epidermidis isolates were provided by Centre de Recherche en Infectiologie (CRI) de Québec (Québec, QC, Canada).

[4] = tested on: Staphylococcus aureus CMRSA-2; assay: Broth microdilution MIC; assay type: cell-based; conditions: CMRSA2, S. aureus CMRSA-2, CAMHB supplemented with 2% NaCl, read-out: Broth Microdilution MIC
Text: as §1

Bovine S. aureus = assay: Susceptibility of isolate panel (MIC50, MIC90, range); assay type: cell-based, Staphylococcus aureus; conditions: Bovine S. aureus, 48 isolates
Text: as §1
(§2) The antibacterial activity of the most promising compound, PC206, was also evaluated against larger groups of clinical isolates of human and animal origin. The MIC50 and MIC90 values represented the concentrations of drug required to inhibit the growth of 50% and 90% of the bacterial strains tested, respectively.

MRSA = assay: as above; assay type: cell-based, Staphylococcus aureus; conditions: 42 isolates
Text: as §1, §2

S. haemolitycus = assay: as above; assay type: cell-based, S. haemolyticus; conditions: S. haemolitycus, 10 isolates
Text: as §1, §2

[5] = tested on: Staphylococcus aureus ATCC 29213; assay: Broth microdilution MIC; conditions: ATCC29213, read-out: Broth Microdilution MIC
S. hominis = assay: Susceptibility of isolate panel (MIC50, MIC90, range); assay type: cell-based; conditions: S. hominis, 10 isolates
Text: as §1, §2

S. epidermidis = assay: as above; assay type: cell-based; conditions: S. epidermidis, 10 isolates
Text: as §1, §2

S. simulans = assay: as above; assay type: cell-based; conditions: S. simulans, 5 isolates
Text: as §1, §2

S. chromogenes = assay: as above; assay type: cell-based; conditions: S. chromogenes, 5 isolates
Text: as §1, §2

[6] = tested on: guanine riboswitch-lacZ fusion construct (xpt-lacZ); assay: Riboswitch regulation assay (lacZ-gene reporter); assay type: cell-based, B. subtilis
Text: The novel pyrimidine compounds, especially PC206, display specificity and potency against some staphylococci but not the other bacterial genus (Table 1 and Table 2). Because they are structurally derived from PC1 and PC2, these novel antibiotic candidates are expected to have the same mode of action. […] To verify this hypothesis, a strain of B. subtilis with a guanine riboswitch-lacZ fusion construct (named xpt-lacZ) integrated in its chromosome was exposed to these new antimicrobials. […] Therefore, it is an adequate reporter species. The metabolization of substrate ONPG into colored ONP was normalized by the bacterial suspension absorbance at 600 nm (Miller units) and relativized to the untreated condition.
β-galactosidase gene expression in the presence of the new pyrimidine analogs was studied, using an xpt-lacZ transcriptional fusion construct integrated in the genome of B. subtilis as previously described. Briefly, cultures were grown for 5 h at 35 °C in CAMHB, from an initial optical density of 0.05 at 600 nm (OD600), and then diluted 1:20 and in the presence of different concentrations of the compounds tested. Cultures were centrifuged for 10 min at 13,100 rpm, the supernatant was discarded, and pellets were suspended in a Z-buffer (NaH2PO4 40 mM, Na2HPO4 60 mM, MgSO4 1 mM, KCl 10 mM). Cultures OD600 were measured, and bacteria were then lysed with lysozyme (1 mg/mL) and β-mercaptoethanol 50 mM for 30 min. Lysates were centrifuged for 10 min at 13,100 rpm, and supernatants were incubated for 5 min at 30 °C with the substrate orthonitrophenyl-β-galactoside (ONPG; Sigma Aldrich). Reactions were stopped with Na2CO3 1M, supernatants OD420 were measured, and Miller units were calculated. A decrease in β-galactosidase activity indicated binding of the test compound to the riboswitch. Guanine and oxacillin were used as […] controls, respectively. The formula to measure Miller units is as follows: Millerunits=1000×OD420/t·v·OD600
Here, t represents the time of incubation with ONPG, and v represents the volume of the reaction.

[7] = Staphylococcus aureus, CAMHB with 2% NaCl, read-out: MIC50
[8] = Staphylococcus aureus, CAMHB with 2% NaCl, read-out: MIC90

`O[C@@H](CS)[C@@H](O)CS` (racemic) [DTT, dithiothreitol, reference compound] was tested, and the MIC [1] was > 75 mM.

`Cc1onc(-c2ccccc2)c1C(=O)N[C@@H]1C(=O)N2[C@@H]1SC(C)(C)[C@@H]2C(=O)O` [OXA, oxacillin] was tested, and the MIC [2] was 0.25 mg/L (≈ 0.623 µM), the MIC [3] was 64 mg/L (≈ 159 µM) and the MIC [4] was > 64 mg/L. The “MIC Range” value (Bovine S. aureus; CAMHB with 2% NaCl) was 0.03 to 32 mg/L, the MIC50 (Bovine S. aureus; [7]) was 0.12 mg/L (≈ 0.299 µM) and the MIC90 (Bovine S. aureus; [8]) was 0.25 mg/L (≈ 0.623 µM). The “MIC Range” value (MRSA; CAMHB with 2% NaCl) was 4 to 64 mg/L, the MIC50 (MRSA; [7]) was 32 mg/L (≈ 79.7 µM) and the MIC90 (MRSA; [8]) was 64 mg/L (≈ 159 µM). For the same compound, the MIC50 (S. haemolitycus; Staphylococcus haemolyticus, CAMHB with 2% NaCl, read-out: MIC50) was > 16 mg/L, the MIC90 (S. haemolitycus; Staphylococcus haemolyticus, CAMHB with 2% NaCl, read-out: MIC90) was > 16 mg/L and the MIC [5] was 0.25 mg/L (≈ 0.623 µM). The MIC50 (S. hominis; Staphylococcus hominis, CAMHB with 2% NaCl, read-out: MIC50) was 1 mg/L (≈ 2.49 µM), the MIC90 (S. hominis; Staphylococcus hominis, CAMHB with 2% NaCl, read-out: MIC90) was > 16 mg/L and the “MIC Range” value (S. epidermidis; CAMHB with 2% NaCl) was 0.03 to 16 mg/L. The MIC50 (S. epidermidis; Staphylococcus epidermidis, CAMHB with 2% NaCl, read-out: MIC50) was 2 mg/L (≈ 4.98 µM), the MIC90 (S. epidermidis; Staphylococcus epidermidis, CAMHB with 2% NaCl, read-out: MIC90) was > 16 mg/L and the “MIC Range” value (S. simulans; CAMHB with 2% NaCl) was 0.06 to 0.12 mg/L. The MIC50 (S. simulans; Staphylococcus simulans, CAMHB with 2% NaCl, read-out: MIC50) was 0.06 mg/L (≈ 0.149 µM), the MIC90 (S. simulans; Staphylococcus simulans, CAMHB with 2% NaCl, read-out: MIC90) was 0.12 mg/L (≈ 0.299 µM) and the “MIC Range” value (S. chromogenes; CAMHB with 2% NaCl) was 0.06 to 0.12 mg/L. For the same compound, the MIC50 (S. chromogenes; CAMHB with 2% NaCl, read-out: MIC50) was 0.12 mg/L (≈ 0.299 µM), the MIC90 (S. chromogenes; CAMHB with 2% NaCl, read-out: MIC90) was 0.12 mg/L (≈ 0.299 µM) and the “Effect on Miller units” value ([6]; concentrations below the MIC of 0.25 µg/mL) was “did not affect the expression of Miller units”.

For `Nc1nc2nc[nH]c2c(=O)[nH]1` [Guanine, reference compound], the “Effect on lacZ expression” value ([6]; concentration as low as 1 µg/mL) was “strongly inhibited lacZ expression”.

In the case of `CC[C@@H]1CCN[C@H](C(=O)N[C@@H]([C@H]2O[C@H](SC)[C@H](O)[C@@H](O)[C@H]2O)[C@H](C)Cl)C1` [PIR, pirlimycin], the MIC50 (Bovine S. aureus) was 0.25 mg/L (≈ 0.608 µM), the MIC90 (Bovine S. aureus) was 0.5 mg/L (≈ 1.22 µM) and the “MIC Range” value (Bovine S. aureus) was 0.12 to 1 mg/L. For the same compound, the MIC50 (MRSA) was >64 mg/L, the MIC90 (MRSA) was >64 mg/L and the MIC50 (S. haemolitycus) was 0.25 mg/L (≈ 0.608 µM). The MIC90 (S. haemolitycus) was >16 mg/L, the MIC50 (S. hominis) was 1 mg/L (≈ 2.43 µM) and the MIC90 (S. hominis) was >16 mg/L. The MIC50 (S. epidermidis) was 0.12 mg/L (≈ 0.292 µM), the MIC90 (S. epidermidis) was >16 mg/L and the MIC50 (S. simulans) was 0.12 mg/L (≈ 0.292 µM). For the same compound, the MIC90 (S. simulans) was 0.25 mg/L (≈ 0.608 µM), the “MIC Range” value (S. simulans) was 0.12 to 0.25 mg/L and the MIC50 (S. chromogenes) was 0.06 mg/L (≈ 0.146 µM). For the same compound, the MIC90 (S. chromogenes) was 1 mg/L (≈ 2.43 µM) and the “MIC Range” value (S. chromogenes) was 0.06 to 2 mg/L.
